Experimental data as given in patent US20060037085A1, “Animal model for fetal alcohol syndrome and methods of treatment” (priority 2004, published 2006).
Values joined by “and” are separate entries in the source; they are usually repeats but may differ in a detail not shown here. Equal values may be shown once. Read-outs that look alike come from different tables or passages of the source. Marks after values point to notes of the source that are not given here.

Legend:
Xenopus laevis embryos [1] = settings: for % body length of control / % width between eyes of control / N (normal) tadpoles / def (deformed) tadpoles: Xenopus laevis
Protocol: Embryo collection and experimental conditions for Xenopus model. […] In each experiment, embryos at the 2-4 cell stage were collected from the dejellied embryos. […] Each group was then incubated in a plastic petri dish containing 10 ml of 30% MMR, with or without ethanol for 12 hours. Embryos were allowed to develop for approximately 48 hours at room temperature (22° C.), until the control group reached tadpole stage (stage 45). The conditions used for producing eye defects (Peng et al, 2004), delayed gut development (Peng), microencephaly (Peng et al), and growth retardation (Peng) are shown in detail in the attached references.
(§1) Morphological measurements of microcephaly and growth retardation.
In a specific embodiment, embryos are exposed to at least about 0.4%, 0.5%, 0.6%, 0.7%, 0.8%, 0.9% or 1% alcohol.
Embryos were exposed to 0.6% ethanol at stage 9, 11, 13, 16, 18, 20, 23, 25 and 40 and were grown until the control “no ethanol” group reached tadpole stage. The morphology of the tadpoles was then examined (Table 2).
To determine the minimum duration required to produce fetal deformations, embryos at stage 13 were exposed to 0.6% of alcohol for 1, 2, 4, 6, 12, 24, 36 or 48 hours.

Xenopus laevis embryos [2] = tested on: Xenopus laevis embryos
Protocol: as §1
Vitamin C treatment. Embryos at stage 13 (initial neural plate stage) were collected and divided into groups, each containing 15-20 embryos and incubated in a plastic petri dish containing MMR medium as stated above. Vitamin C, having a concentration of 100 μM, was added either concomitantly, 2 hours before, or 2 hours after the initiation of a 12-hour alcohol exposure. The tadpoles were fixed and measurements were made as stated above.

[3] = tested on: Xenopus laevis tadpole brain; assay: Histological analysis of brain injury (coronal brain sections of tadpoles); settings: tadpoles treated with alcohol
Description: Histological analysis of brain injury. Embryos were fixed in 2% paraformaldehyde, dehydrated, embedded in paraffin. The embryos were sectioned coronally through the head and stained with hematoxylin and eosin.
The EF-1α transcript was detected as an internal control for equal RNA load.

[4] = tested on: alcohol-induced ROS production; assay: ROS measurement (hydrogen peroxide level in embryos); format: in vivo, Xenopus laevis; settings: 0.6% alcohol, stage 13 to 22, harvested at stage 22
Protocol: (A) Embryos were pretreated with or without vitamin C two hours before alcohol treatment (0.6%, 12 h, from stage 13 to 22). The embryos were harvested at stage 22 and the hydrogen peroxide level measured by the colorimetric quantitation of hydrogen peroxide method (total hydroperoxides), according to the protocols provided by the manufacturer (BIOXYTECH H202-560 kit, OXIS International, Inc., USA); (B) The NF-κB mediated transcriptional activity was measured using NF-κB luciferase reporter plasmid (pLuc-NF-κB) containing IL-6 promoter region with four repeats of NF-κB binding sites.
ROS measurement. […] At the end of the experiment, embryos were harvested and total ROS content was determined by the calorimetric quantitation of hydrogen peroxide method (total hydroperoxides), following protocols provided by the manufacturer (BIOXYTECH H202-560 kit, OXIS International, Inc. USA).

NF-κB = NF-κB reporter assay (pLuc-NF-κB) in whole embryos; format: in vivo, Xenopus laevis; settings: 0.6% ethanol, recorded at stage 22
Protocol: NF-κB reporter assay. NF-κB luciferase reporter plasmid (pLuc-NF-κB) containing IL-6 promoter region with four repeats of NF-κB binding sites was used to measure NF-κB-mediated transcriptional activity (Li, 1997). Embryos at the two-cell stage were injected with pLuc-NF-κB, treated as indicated in the text, harvested, and lysed at stage 22. Protein concentration was determined. The luciferase activities were measured and calculated as relative luciferase activity per mg of protein.
In this embodiment, NF-κB activity was measured in the whole embryo by the reporter construct pLuc-NF-κB, which was injected into embryos at 2-cell stage.

NCAM = settings: animal caps until stage 22
Description: (§2) RT-PCR Animal caps were dissected from embryos at stage 8.5 and cultured in 67% Leibovitz's L-15 medium, pH 7.5 in the presence or absence of varied concentration of alcohol until stage 22. Total RNA was extracted from cultured animal caps with Trizol reagent (Invitrogen). Primer sets and PCR conditions for NCAM and Pax6 have been described in our previous reports (Peng, Neurobiol. Dis., 2004; Peng, J. Mol. Biol., 2004). PCR products were subject to electrophoresis on TBE gel and visualized by ethidium bromide staining.
(§3) Animal cap explant assay. […] Total RNA was extracted from animal caps or whole embryos using TRIZOL reagent (Invitrogen). The total RNA was reverse transcribed using the Superscript system (Invitrogen), and the first strand cDNA of the target gene amplified by PCR.
(§4) The Xenopus animal cap is composed of pluripotent cells that can be induced to form neural, mesodermal, or epidermal tissue, and is a useful tissue to assess the activity of various factors on neural development. Animal caps were treated with varied concentrations of alcohol as indicated.

Pax6 = settings: animal caps until stage 22
Description: as §2, §3, §4

Sox17, Pax6 and VegT = assay: Animal cap explant assay, RT-PCR of gut developmental genes; format: cell-based, Xenopus laevis; settings: alcohol
Description: as §3

Xenopus laevis embryos [5] = tested on: Xenopus laevis embryos; remark: listed apart in the source
Protocol: Morphological measurements of microcephaly and growth retardation. The tadpoles were then fixed in 2% paraformaldehyde in 30% MMR, and their morphologies examined by light microscopy and photographs were taken at a fixed magnification for body length and head width measurements. The following criteria were recorded: (1) the number of normal/deformed/dead embryos; (2) length of the body measured between the tip of the jaw and the tip of the tail, and (3) width between the eyes measured at the widest level of that of the tadpoles.
In each experiment, embryos at 2-cell stage were collected and microinjected with the expression plasmid for either catalase (pCMS-CAT), xPax6 (pCS2+xPax6) or xSox2 (pCS2+xSox2) into each of the two blastomeres. After reaching stage 13, the embryos were divided into groups, each consisting of 20 embryos, which were then incubated in 10 ml of 30% Modified Marc's Ringer (MMR) for 12 hours until stage 22 in the presence or absence of varied concentrations of alcohol as indicated. As alcohol is volatile, the experimental media were replaced with fresh media every 4 hours during the course of alcohol treatment to minimize fluctuations in the alcohol concentration. At stage 22, embryos were transferred to 10 ml of 30% MMR without alcohol and allowed to grow until the control group reached the tadpole stage (stage 40 or 45). The tadpoles were then fixed and examined. Each experiment was repeated at least once with reproducible results.
The injected embryos were allowed to grow to stage 40, and their head size and body length were then compared to that of the control embryos injected with mock plasmid pCS2+ and without alcohol treatment. […] In a separate experiment, 100 pg pCS2+xSox2 or pCS2+ plasmid was injected into animal pole at two-cell stage embryos (n=50) and treated these embryos in 0.6% alcohol under the same conditions as described for Pax6.
As H2O2 is the major ROS produced by fetal alcohol exposure (Ozer et al., 2000), whether eliminating alcohol-induced H2O2 production can prevent microcephaly was examined by the protective effect of catalase. Human catalase was overexpressed in Xenopus embryos by microinjecting the two-cell stage embryos with 100 pg of catalase expression plasmid pCMS-CAT, and then treating them with or without 0.6% alcohol from stage 13 to 22.

[6] = pCMS-EGFP vector-injected embryos, 0.6% alcohol stage 13 to 22

SMILES: CCO [Ethanol, ethanol]
- dead (Xenopus laevis embryos [1]; 0.3% ethanol from stage 11 until control reached stage 45, 15 embryos per group): 2
- dead (Xenopus laevis embryos [1]; 0.4% ethanol from stage 11 until control reached stage 45, 15 embryos per group): 1
- dead (Xenopus laevis embryos [1]; 0.5% ethanol from stage 11 until control reached stage 45, 15 embryos per group): 2
- mortality, head and body sizes vs control (Xenopus laevis embryos [1]; 0.6% alcohol, 12-hour exposure, stage 13-22): increased mortality and marked reduction in head and body sizes
- dead (Xenopus laevis embryos [1]; 0.6% ethanol from stage 11 until control reached stage 45, 15 embryos per group): 1
- dead (Xenopus laevis embryos [1]; 0.6% ethanol, initial exposure at Stage 11, until control reached tadpole stage): 3
- dead (Xenopus laevis embryos [1]; 0.6% ethanol, initial exposure at Stage 13, until control reached tadpole stage): 2
- dead (Xenopus laevis embryos [1]; 0.6% ethanol, initial exposure at Stage 16, until control reached tadpole stage): 1
- dead (Xenopus laevis embryos [1]; 0.6% ethanol, initial exposure at Stage 18, until control reached tadpole stage): 1
- dead (Xenopus laevis embryos [1]; 0.6% ethanol, initial exposure at Stage 20, until control reached tadpole stage): 2
- dead (Xenopus laevis embryos [1]; 0.6% ethanol, initial exposure at Stage 23, until control reached tadpole stage): 1
- dead (Xenopus laevis embryos [1]; 1.0% ethanol from stage 11 until control reached stage 45, 15 embryos per group): 3
- dead (Xenopus laevis embryos [1]; 1.5% ethanol from stage 11 until control reached stage 45, 15 embryos per group): 4
- dead (Xenopus laevis embryos [1]; 2.0% ethanol from stage 11 until control reached stage 45, 15 embryos per group): 6
- % body length of control (Xenopus laevis embryos [1]; in vivo, 0.3 %): 95 ± 54%
- % width between eyes of control (Xenopus laevis embryos [1]; in vivo, 0.3 %): 84 ± 15%
- N (normal) tadpoles (Xenopus laevis embryos [1]; in vivo, 0.3 %): 11
- def (deformed) tadpoles (Xenopus laevis embryos [1]; in vivo, 0.3 %): 3
- % body length of control (Xenopus laevis embryos [1]; in vivo, 0.4 %): 90 ± 41%
- % width between eyes of control (Xenopus laevis embryos [1]; in vivo, 0.4 %): 81 ± 11 %
- N (normal) tadpoles (Xenopus laevis embryos [1]; in vivo, 0.4 %): 10
- def (deformed) tadpoles (Xenopus laevis embryos [1]; in vivo, 0.4 %): 4
- % body length of control (Xenopus laevis embryos [1]; in vivo, 0.5 %): 85 ± 57 %
- % width between eyes of control (Xenopus laevis embryos [1]; in vivo, 0.5 %): 75 ± 09 %
- N (normal) tadpoles (Xenopus laevis embryos [1]; in vivo, 0.5 %): 7
- def (deformed) tadpoles (Xenopus laevis embryos [1]; in vivo, 0.5 %): 6
- % body length of control (Xenopus laevis embryos [1]; in vivo, 0.6 %): 74 ± 34 %
- % width between eyes of control (Xenopus laevis embryos [1]; in vivo, 0.6 %): 70 ± 18 %
- N (normal) tadpoles (Xenopus laevis embryos [1]; in vivo, 0.6 %): 5
- def (deformed) tadpoles (Xenopus laevis embryos [1]; in vivo, 0.6 %): 9
- % body length of control (Xenopus laevis embryos [1]; in vivo, 1 %): 70 ± 39 %
- % width between eyes of control (Xenopus laevis embryos [1]; in vivo, 1 %): 69 ± 21 %
- N (normal) tadpoles (Xenopus laevis embryos [1]; in vivo, 1 %): 2
- def (deformed) tadpoles (Xenopus laevis embryos [1]; in vivo, 1 %): 10
- % body length of control (Xenopus laevis embryos [1]; in vivo, 1.5 %): 67 ± 51 %
- % width between eyes of control (Xenopus laevis embryos [1]; in vivo, 1.5 %): 67 ± 17 %
- N (normal) tadpoles (Xenopus laevis embryos [1]; in vivo, 1.5 %): 1
- def (deformed) tadpoles (Xenopus laevis embryos [1]; in vivo, 1.5 %): 10
- % body length of control (Xenopus laevis embryos [1]; in vivo, 2 %): 65 ± 58 %
- % width between eyes of control (Xenopus laevis embryos [1]; in vivo, 2 %): 67 ± 23 %
- N (normal) tadpoles (Xenopus laevis embryos [1]; in vivo, 2 %): 0
- def (deformed) tadpoles (Xenopus laevis embryos [1]; in vivo, 2 %): 9
- effect on viability and morphology of the tadpoles (Xenopus laevis embryos [1]; in vivo): no significant effect in either the viability or the morphology of the tadpoles
- teratogenic effect (Xenopus laevis embryos [1]; in vivo): resistant to the teratogenic effect of alcohol
- mortality rate (Xenopus laevis embryos [1]; stage 40 tadpoles exposed to 0.6% alcohol): 80%
- dead (Xenopus laevis embryos [2]; 0.6% EtOH for 12 hours from stage 13, 15 embryos): 2
- Alive (Xenopus laevis embryos [2]; Xenopus laevis, in vivo, 12 h): 13
- Body length (Xenopus laevis embryos [2]; Xenopus laevis, in vivo, 12 h): 9.25 ± 010^b mm
- Eye distance (Xenopus laevis embryos [2]; Xenopus laevis, in vivo, 12 h): 1.63 ± 005^b mm
- size of the forebrain area vs control [3]: reduction in size of the forebrain area
- hydrogen peroxide level in the embryos ([4]; listed as alcohol): significantly augmented
- hydrogen peroxide level in the embryos ([4]; listed as ethanol): significantly increased
- NF-κB activity in the embryo (luciferase reporter) (NF-κB): increased
- reduction of NCAM expression (NCAM; 0.1% alcohol): 15%
- reduction of NCAM expression (NCAM; 0.2% alcohol): 25%
- reduction of NCAM expression (NCAM; 0.3% alcohol): 50%
- reduction of NCAM expression (NCAM; 0.4% alcohol): 70%
- suppression of Pax6 expression (Pax6; 0.1% alcohol): 25%
- suppression of Pax6 expression (Pax6; 0.2% alcohol): 50%
- suppression of Pax6 expression (Pax6; 0.3% (65 mM) alcohol): 90%
- expression of Sox17, Pax6 and VegT (Sox17, Pax6 and VegT): suppressed the expression
- alive (Total/alive) (Xenopus laevis embryos [5]; Xenopus laevis, in vivo, 12 h): 40/32
- Body length (% of control) (Xenopus laevis embryos [5]; [6]): 84 % of control and 83.7 ± 10.1^a % of control
- Distance between eyes (% of control) (Xenopus laevis embryos [5]; [6]): 81 % of control and 81.3 ± 14^a % of control
- frequency of noted microcephaly and growth retardation (Xenopus laevis embryos [5]; pCS2+ (mock plasmid) injected group, 0.6% alcohol): 52%
